According to the supplement of paper PMC10307832:

Legend:
Assay in all cases: relative viability (nuclei count vs DMSO), 5 days (fraction); higher = more cells survive
201T = system: 201T
Outline: (§1)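 Relative viability is defined as nuclei in treated wells over nuclei in vehicle wells. Duplicate plates were run and medians reported. Lung cancer cell lines in 1536-well plates were dosed by pin tool one day after seeding, with one drug or with a fixed anchor-drug dose plus five library-drug doses (not always all listed) in √10 steps, and nuclei were counted after 5 days.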

BEN = system: BEN
Outline: as §1

CAL-12T = system: CAL-12T
Outline: as §1

HCC-78 = system: HCC-78
Outline: as §1

HOP-62 = system: HOP-62
Outline: as §1

LCLC-97TM1 = system: LCLC-97TM1
Outline: as §1

LOU-NH91 = system: LOU-NH91
Outline: as §1

NCI-H1355 = system: NCI-H1355
Outline: as §1

NCI-H1395 = system: NCI-H1395
Outline: as §1

NCI-H1651 = system: NCI-H1651
Outline: as §1

NCI-H1793 = system: NCI-H1793
Outline: as §1

NCI-H1915 = system: NCI-H1915
Outline: as §1

NCI-H1944 = system: NCI-H1944
Outline: as §1

NCI-H2126 = system: NCI-H2126
Outline: as §1

NCI-H2347 = system: NCI-H2347
Outline: as §1

NCI-H3122 = system: NCI-H3122
Outline: as §1

NCI-H322M = system: NCI-H322M
Outline: as §1

NCI-H441 = system: NCI-H441
Outline: as §1

NCI-H650 = system: NCI-H650
Outline: as §1

NCI-H838 = system: NCI-H838
Outline: as §1

SK-LU-1 = system: SK-LU-1
Outline: as §1

SW 1573 = system: SW 1573
Outline: as §1

In the case of `CN1CCN(CCOc2cc(OC3CCOCC3)c3c(Nc4c(Cl)ccc5c4OCO5)ncnc3c2)CC1` [Saracatinib] + Cc1cc(Nc2cc(N3CCN(C)CC3)nc(Sc3ccc(NC(=O)C4CC4)cc3)n2)n[nH]1 [Tozasertib] (partner 0.1 µM), the relative viability (201T; first compound 0.02 µM) is reported as 0.977, the relative viability (201T; first compound 0.2 µM) is reported as 0.89 and the relative viability (201T; first compound 0.6325 µM) is reported as 0.821. The relative viability (201T; first compound 2 µM) was 0.686, the relative viability (BEN; first compound 0.02 µM) was 0.518 and the relative viability (BEN; first compound 0.2 µM) was 0.477. The relative viability (BEN; first compound 0.6325 µM) was 0.458, the relative viability (BEN; first compound 2 µM) was 0.419 and the relative viability (CAL-12T; first compound 0.02 µM) was 0.361. For the same compound, the relative viability (CAL-12T; first compound 0.2 µM) was 0.387, the relative viability (CAL-12T; first compound 0.6325 µM) was 0.283 and the relative viability (CAL-12T; first compound 2 µM) was 0.194. The relative viability (HCC-78; first compound 0.02 µM) was 0.403, the relative viability (HCC-78; first compound 0.6325 µM) was 0.572 and the relative viability (HCC-78; first compound 2 µM) was 0.405. For the same compound, the relative viability (HOP-62; first compound 0.02 µM) was 0.367, the relative viability (HOP-62; first compound 0.2 µM) was 0.318 and the relative viability (HOP-62; first compound 0.6325 µM) was 0.394. It also gave a relative viability (HOP-62; first compound 2 µM) of 0.384, a relative viability (LCLC-97TM1; first compound 0.02 µM) of 0.21 and a relative viability (LCLC-97TM1; first compound 0.2 µM) of 0.173. The relative viability (LCLC-97TM1; first compound 0.6325 µM) was 0.287, the relative viability (LCLC-97TM1; first compound 2 µM) was 0.185 and the relative viability (LOU-NH91; first compound 0.02 µM) was 0.655. For the same compound, the relative viability (LOU-NH91; first compound 0.2 µM) was 0.449, the relative viability (LOU-NH91; first compound 0.6325 µM) was 0.476 and the relative viability (LOU-NH91; first compound 2 µM) was 0.42. For the same compound, the relative viability (NCI-H1355; first compound 0.02 µM) was 0.532, the relative viability (NCI-H1355; first compound 0.2 µM) was 0.317 and the relative viability (NCI-H1355; first compound 0.6325 µM) was 0.454. The relative viability (NCI-H1355; first compound 2 µM) was 0.36, the relative viability (NCI-H1395; first compound 0.02 µM) was 0.722 and the relative viability (NCI-H1395; first compound 0.2 µM) was 0.763. It also gave a relative viability (NCI-H1395; first compound 0.6325 µM) of 0.83, a relative viability (NCI-H1395; first compound 2 µM) of 0.619 and a relative viability (NCI-H1651; first compound 0.02 µM) of 0.71. The relative viability (NCI-H1651; first compound 0.2 µM) was 0.555, the relative viability (NCI-H1651; first compound 0.6325 µM) was 0.691 and the relative viability (NCI-H1651; first compound 2 µM) was 0.625. It also gave a relative viability (NCI-H1793; first compound 0.02 µM) of 0.318, a relative viability (NCI-H1793; first compound 0.6325 µM) of 0.209 and a relative viability (NCI-H1793; first compound 2 µM) of 0.142. It also gave a relative viability (NCI-H1915; first compound 0.02 µM) of 0.432, a relative viability (NCI-H1915; first compound 0.2 µM) of 0.382 and a relative viability (NCI-H1915; first compound 0.6325 µM) of 0.461. It also gave a relative viability (NCI-H1915; first compound 2 µM) of 0.343, a relative viability (NCI-H1944; first compound 0.02 µM) of 0.23 and a relative viability (NCI-H1944; first compound 0.6325 µM) of 0.227. For the same compound, the relative viability (NCI-H1944; first compound 2 µM) was 0.169, the relative viability (NCI-H2126; first compound 0.02 µM) was 0.819 and the relative viability (NCI-H2126; first compound 0.2 µM) was 0.846. The relative viability (NCI-H2126; first compound 0.6325 µM) was 0.815, the relative viability (NCI-H2126; first compound 2 µM) was 0.648 and the relative viability (NCI-H2347; first compound 0.02 µM) was 0.514. The relative viability (NCI-H2347; first compound 0.2 µM) was 0.517, the relative viability (NCI-H2347; first compound 0.6325 µM) was 0.539 and the relative viability (NCI-H2347; first compound 2 µM) was 0.518. It also gave a relative viability (NCI-H3122; first compound 0.02 µM) of 0.569, a relative viability (NCI-H3122; first compound 0.2 µM) of 0.358 and a relative viability (NCI-H3122; first compound 0.6325 µM) of 0.384. It also gave a relative viability (NCI-H3122; first compound 2 µM) of 0.298, a relative viability (NCI-H322M; first compound 0.02 µM) of 0.501 and a relative viability (NCI-H322M; first compound 0.2 µM) of 0.313. The relative viability (NCI-H322M; first compound 0.6325 µM) was 0.439, the relative viability (NCI-H322M; first compound 2 µM) was 0.255 and the relative viability (NCI-H441; first compound 0.02 µM) was 0.557. The relative viability (NCI-H441; first compound 0.2 µM) was 0.601, the relative viability (NCI-H441; first compound 0.6325 µM) was 0.728 and the relative viability (NCI-H441; first compound 2 µM) was 0.641. The relative viability (NCI-H650; first compound 0.02 µM) was 0.65, the relative viability (NCI-H650; first compound 0.2 µM) was 0.656 and the relative viability (NCI-H650; first compound 0.6325 µM) was 0.701. It also gave a relative viability (NCI-H650; first compound 2 µM) of 0.716, a relative viability (NCI-H838; first compound 0.02 µM) of 0.243 and a relative viability (NCI-H838; first compound 0.2 µM) of 0.241. The relative viability (NCI-H838; first compound 0.6325 µM) was 0.264, the relative viability (NCI-H838; first compound 2 µM) was 0.246 and the relative viability (SK-LU-1; first compound 0.02 µM) was 0.354. It also gave a relative viability (SK-LU-1; first compound 0.2 µM) of 0.231, a relative viability (SK-LU-1; first compound 0.6325 µM) of 0.172 and a relative viability (SK-LU-1; first compound 2 µM) of 0.132. The relative viability (SW 1573; first compound 0.02 µM) was 0.142, the relative viability (SW 1573; first compound 0.2 µM) was 0.207 and the relative viability (SW 1573; first compound 0.6325 µM) was 0.189. The relative viability (SW 1573; first compound 2 µM) was 0.188.
